Reference: US20230082989A1, “DEVICES AND METHODS FOR TREATING CANCER AND CARDIAC WASTING” (Nazzano Devices Limited, priority 2020, published 2023)

Key:
Format in all cases: in vivo, human
[1] = test system: advanced cancer patients; assay: 24 h ECG recording (mean heart rate, SDNN, NSVT) in advanced cancer patients receiving heart failure drugs, case series
Description: (§1) In some cases, SGLT2 inhibitors, Dapagliflozin or Empagliflozin can be used for treatment of type 2 diabetes, heart failure, or a combination thereof. Disclosed herein are methods comprising administering these drugs to advanced cancer patients to improve a heart muscle in these patients. We here describe 5 advanced cancer patients, who were treated with either an SGLT2 inhibitor, an ACE inhibitor, a beta-blocker or an Angiotensin receptor blocker, all of which are shown to be effective heart failure therapies.

[2] = test system: advanced cancer patients; assay: Survival follow-up of advanced cancer patients receiving heart failure drugs, case series
[3] = test system: advanced cancer patients; assay: Interpretation of case reports: protection from heart muscle wasting, NSVT and early death
[4] = test system: advanced cancer patients; assay: Hand grip strength, 4 meter walk and 6-minute walk test in advanced cancer patients receiving heart failure drugs, case series
Description: as §1

[5] = test system: advanced cancer patients; assay: Echocardiogram (LVEF, LV mass) in advanced cancer patients receiving heart failure drugs, case series
Description: as §1

[6] = test system: advanced cancer patients; assay: Self-rated health / EQ5D5L index in advanced cancer patients receiving heart failure drugs, case series; conditions: for Self-rated health: 1=very good, 5=very poor; for Symptom status, EQ5D5L Index: 1 best possible, 0 worst possible
Description: as §1

[7] = test system: patients with advanced cancer; assay: Quality of life by Minnesota Living with Heart Failure Questionnaire (MLHFQ), ivabradine study; conditions: N=4, LVEF>50%; total score range 0-105, lower = better QoL, <24 good QoL
Source text: N=4, LVEF>50%. […] MLHFQ has a total score range of 0-105. A lower score indicated a better QoL, with a score of <24 indicating good QoL, scores from 24 to […] indicating moderately impaired QoL, scores >45 indicating low QoL.
(§2) In this study 4 cancer patients with no known heart failure and with normal left ventricular function (LEF>50%) were studied. They all had histologically confirmed diagnoses of cancer (see table 1), and all suffered poor quality of life, with three showing a Karnofksy performance score of 70-80% (indicating an inability to carry on normal activity or to do active work) and one showing a Karnofksy performance score of 50-60% (indicating a need for considerable assistance and frequent medical care). […] All were given Ivabradine at a starting dose of 5 mg twice a day. Heart rate was reduced in all patients from 104.5±10.4 bpm to 77.0±10.9 bpm. […] The questionnaires are the Minnesota Living with Heart Failure Questionnaire (MLHFQ) (see FIG. 15) and the Kansas City Cardiomyopathy Questionnaire (KCCQ) (see FIG. 14). In the […] indicate a better quality of life and in the MLWHFQ lower scores indicate a better quality of life. The two figures show the clinically important improvement in symptoms and quality of life achieved in these patient by the use of the heart failure drug Ivabradine.

[8] = test system: patients with advanced cancer; assay: Quality of life by Kansas City Cardiomyopathy Questionnaire (KCCQ), ivabradine study
Source text: N=4, LVEF>50%. A 5 unit increase was considered a clinically meaningful change. […] The KCCQ score range is 0-100, with higher scores indicating better QoL, and improvements of ≥5 indicated clinically important changes.
as §2

[9] = test system: patients with advanced cancer; assay: Prospective study of ivabradine in advanced cancer patients: heart rate; conditions: 4 cancer patients, no known heart failure, LVEF>50%, heart rate >70 bpm; Ivabradine starting dose 5 mg twice a day; reduced from 104.5±10.4 bpm
Source text: In this study an effect of a use of a heart drug in advanced cancer was studied. In some cases, a heart drug can comprise ivabradine. In some cases, ivabradine can be a selective antagonist of myocardial If (funny) channels. […] In some cases, ivabradine can provide pure heart rate reduction, reducing a diastolic depolarization slope, without altering other cardiac and hemodynamic parameters. In some cases, ivabradine can be effective for a treatment of an ischemic heart disease. In some cases, ivabradine can reduce episodes of both symptomatic angina pectoris and myocardial ischemia, and in heart failure where it can reduce mortality and morbidity. In some cases, it may only be approved or recommended for treatment of these two conditions. In some cases, ivabradine may have never been recommended for a treatment of a cancer patient. Disclosed herein in some embodiments, are methods in which ivabradine can be administered for a treatment of a cancer patient.
In this study 4 cancer patients with no known heart failure and with normal left ventricular function (LEF>50%) were studied. […]

[10] = Case 10: Lymphoma Ann Arbor stage 4 E, Ramipril 2.5 mg with co-medication
[11] = Case 11: Lymphoma Ann Arbor stage 4 E, Ramipril 10 mg with co-medication
[12] = Case 12: Multiple Myeloma stage 3, Spironolactone 25 mg, Candesartan 32 mg and Candesartan 8 mg listed, with co-medication
[13] = Case 13: Lung cancer UICC stage 4B, Spironolactone 25 mg and Candesartan 32 mg with co-medication
[14] = Case 14: Breast Cancer UICC stage 4, Spironolactone 25 mg with co-medication
[15] = Case 8: Pancreas Cancer UICC stage 4, Nebivolol 7.5 mg with co-medication
[16] = Case 7: lymphoma Ann Arbor Stage 2A, Empagliflozin 10 mg with co-medication

CCOC(=O)[C@H](CCc1ccccc1)N[C@@H](C)C(=O)N1[C@H](C(=O)O)C[C@@H]2CCC[C@@H]21 [Ramipril]
Heart rate variability SDNN (24 h ECG) [1, 10]: 95 ms | Mean heart rate (24 h ECG) [1, 10]: 64 beats per minute | Non-sustained ventricular tachycardia (24 h ECG) [1, 10]: no non-sustained ventricular tachycardia | Heart rate variability SDNN (24 h ECG) [1, 11]: 120 ms | Mean heart rate (24 h ECG) [1, 11]: 77 beats per minute | Non-sustained ventricular tachycardia (24 h ECG) [1, 11]: no non-sustained ventricular tachycardia | Survival (still alive after) [2, 10]: > 458 days | Survival (still alive after) [2, 11]: > 666 days | Interpretation of the case [3, 10]: protected from heart muscle wasting, life-threatening non-sustained ventricular tachycardia and early death | Interpretation of the case [3, 11]: protected from heart muscle wasting, life-threatening non-sustained ventricular tachycardia and early death | Distance walked in 6 minutes [4, 10]: 440 meters | Hand grip muscle strength [4, 10]: 29 kg | Time to walk 4 meters [4, 10]: 3.5 s | Hand grip muscle strength [4, 11]: 47 kg | LV mass (echocardiogram) [5, 10]: 189 gram | LVEF (echocardiogram) [5, 10]: 63% | LV mass (echocardiogram) [5, 11]: 227 gram | LVEF (echocardiogram) [5, 11]: 67% | Self-rated health [6, 10]: 3 | Symptom status, EQ5D5L Index [6, 11]: 0.999

CC(=O)S[C@@H]1CC2=CC(=O)CC[C@]2(C)[C@H]2CC[C@@]3(C)[C@@H](CC[C@@]34CCC(=O)O4)[C@H]12 [Spironolactone]
Heart rate variability SDNN (24 h ECG) [1, 12]: 112 ms | Mean heart rate (24 h ECG) [1, 12]: 69 beats per minute | Non-sustained ventricular tachycardia (24 h ECG) [1, 12]: no non-sustained ventricular tachycardia | Heart rate variability SDNN (24 h ECG) [1, 13]: 101 ms | Non-sustained ventricular tachycardia (24 h ECG) [1, 13]: no non-sustained ventricular tachycardia | Average heart rate (24 h ECG) [1, 14]: 85 bpm | Heart rate variability SDNN (24 h ECG) [1, 14]: 142 ms | Non-sustained ventricular tachycardia (24 h ECG) [1, 14]: no non-sustained ventricular tachycardia | Survival (still alive after) [2, 14]: > 235 days | Interpretation of the case [3, 13]: protected from heart muscle wasting, life-threatening non-sustained ventricular tachycardia and early death | Interpretation of the case [3, 14]: protected from heart muscle wasting, life-threatening non-sustained ventricular tachycardia and early death | Distance walked in 6 minutes [4, 12]: 527 meters | Hand grip muscle strength [4, 12]: 47 kg | Time to walk 4 meters [4, 12]: 2.5 s | Hand grip muscle strength [4, 13]: 40 kg | Hand grip muscle strength [4, 14]: 40 kg | LV mass (echocardiogram) [5, 13]: 148 gram | LVEF (echocardiogram) [5, 13]: 66% | LV mass (echocardiogram) [5, 14]: 233 gram | LVEF (echocardiogram) [5, 14]: 67% | Symptom status, EQ5D5L Index [6, 12]: 0.887

COc1cc2c(cc1OC)CC(=O)N(CCCN(C)C[C@H]1Cc3cc(OC)c(OC)cc31)CC2 [Ivabradine]
MLHFQ score, baseline to follow-up [7]: improvements from baseline to follow-up, with good QoL at follow-up | Symptoms (breathlessness, fatigue) by MLHFQ and KCCQ symptom scores ([8]; 4 cancer patients, addition of ivabradine 5 mg twice a day starting dose): importantly improved symptoms | KCCQ score improvement from baseline to follow up ([8]; N=4, LVEF>50%, score range 0-100, higher = better QoL, improvement ≥5 clinically important): ≥ 5 | Heart rate on ivabradine [9]: 77.0±10.9 bpm

OC(CNCC(O)C1CCc2cc(F)ccc2O1)C1CCc2cc(F)ccc2O1 (centres unmarked) [Nebivolol]
Heart rate variability SDNN (24 h ECG) [1, 15]: 124 ms | Mean heart rate (24 h ECG) [1, 15]: 62 beats per minute | Non-sustained ventricular tachycardia (24 h ECG) [1, 15]: no non-sustained ventricular tachycardia | Survival (still alive after) [2, 15]: > 337 days | Interpretation of the case [3, 15]: protected from heart muscle wasting, life-threatening non-sustained ventricular tachycardia and early death | Hand grip muscle strength [4, 15]: 27 kg | Time to walk 4 meters [4, 15]: 4.6 s | LV mass (echocardiogram) [5, 15]: 236 gram | LVEF (echocardiogram) [5, 15]: 65% | Self-rated health [6, 15]: 3

OC[C@H]1O[C@@H](c2ccc(Cl)c(Cc3ccc(O[C@H]4CCOC4)cc3)c2)[C@H](O)[C@@H](O)[C@@H]1O [Empagliflozin]
Heart rate variability SDNN (24 h ECG) [1, 16]: 224 ms | Mean heart rate (24 h ECG) [1, 16]: 84 beats per minute | Non-sustained ventricular tachycardia (24 h ECG) [1, 16]: no non-sustained ventricular tachycardia | Survival (still alive after) [2, 16]: > 324 days | Interpretation of the case [3, 16]: protected from heart muscle wasting, life-threatening non-sustained ventricular tachycardia and early death | Hand grip strength [4, 16]: 46 | Time to walk 4 meters [4, 16]: 3.5 s | LV mass (echocardiogram) [5, 16]: 365 gram | LVEF (echocardiogram) [5, 16]: 64% | Self-rated health [6, 16]: 2
